Results: PubChem BioAssay AID248 (DTP/NCI, 2004)
“And” between values parts separate entries of the source, which are not always exact repeats. Identical values can stand only once. Inconclusive results and toxic doses are left out. Cut-off read from the data, not from the text of the source: active = T/C of 150% or more; inactive = T/C below 125%.

Test system: L1210 leukemia ip in BDF1 mice, survival T/C
Experiment: NCI In Vivo Anticancer Drug Screen. Data for tumor model L1210 Leukemia (intraperitoneal) in B6D2F1 (BDF1) mice
Details: endpoint: mean survival time, higher = longer survival
Method in brief: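 Mice bearing the transplanted tumor received compound or vehicle. Survival of the treated group was divided by that of the vehicle-treated control group to give the ratio.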

[1] = dose: 100.0 mg/kg/injection, schedule: Q04DX002 (ip), vehicle: saline
[2] = dose: 200.0 mg/kg/injection, schedule: Q04DX002 (ip), vehicle: saline
[3] = dose: 400.0 mg/kg/injection, schedule: Q04DX002 (ip), vehicle: saline
[4] = dose: 100.0 mg/kg/injection, schedule: Q01DX001 (ip), vehicle: saline
[5] = dose: 200.0 mg/kg/injection, schedule: Q01DX001 (ip), vehicle: saline
[6] = dose: 400.0 mg/kg/injection, schedule: Q01DX001 (ip), vehicle: saline
[7] = dose: 12.0 mg/kg/injection, schedule: Q01DX001 (ip), vehicle: saline
[8] = dose: 25.0 mg/kg/injection, schedule: Q04DX003 (ip), vehicle: saline
[9] = dose: 50.0 mg/kg/injection, schedule: Q01DX001 (ip), vehicle: saline

Measured: T/C

O=C(CCCN1CCC2(CC1)C(=O)NCN2c1ccccc1)c1cccs1
inactive: dose: 3.13 mg/kg/injection, schedule: Q01DX009 (ip), vehicle: saline with Tween-80 95 % of control | dose: 6.25 mg/kg/injection, schedule: Q01DX009 (ip), vehicle: saline with Tween-80 94 % of control | dose: 6.25 mg/kg/injection, schedule: Q04DX003 (ip), vehicle: saline with Tween-80 102 % of control | dose: 12.5 mg/kg/injection, schedule: Q01DX009 (ip), vehicle: saline with Tween-80 89 % of control | dose: 12.5 mg/kg/injection, schedule: Q04DX003 (ip), vehicle: saline with Tween-80 95 % of control

CC(=O)NC(C)C(N)=O (stereo not drawn)
inactive: [1] 108 % of control | [2] 105 % of control | [3] 96 % of control

CC(=O)OCC1OC(n2cnc3c(=O)[nH]nnc32)C(OC(C)=O)C1OC(C)=O (stereo not drawn)
inactive: dose: 100.0 mg/kg/injection, schedule: Q01DX005 (ip), vehicle: saline 96 % of control | dose: 100.0 mg/kg/injection, schedule: Q01DX009 (ip), vehicle: saline 94 % of control | dose: 200.0 mg/kg/injection, schedule: Q01DX005 (ip), vehicle: saline 104 % of control | dose: 200.0 mg/kg/injection, schedule: Q01DX009 (ip), vehicle: saline 92 % of control | dose: 400.0 mg/kg/injection, schedule: Q01DX009 (ip), vehicle: saline 99 % of control

O=c1[nH]nc(Sc2ccccc2)c(=O)[nH]1
inactive: [4] 97 % of control | [5] 97 % of control | [6] 97 % of control

COc1ccc(C(=O)C(=O)c2ccccc2Cl)cc1
inactive: dose: 100.0 mg/kg/injection, schedule: Q01DX005 (ip), vehicle: saline with Tween-80 104 % of control | dose: 100.0 mg/kg/injection, schedule: Q01DX009 (ip), vehicle: saline with Tween-80 96 % of control | dose: 200.0 mg/kg/injection, schedule: Q01DX005 (ip), vehicle: saline with Tween-80 101 % of control | dose: 200.0 mg/kg/injection, schedule: Q01DX009 (ip), vehicle: saline with Tween-80 107 % of control | dose: 400.0 mg/kg/injection, schedule: Q01DX005 (ip), vehicle: saline with Tween-80 101 % of control | dose: 400.0 mg/kg/injection, schedule: Q01DX009 (ip), vehicle: saline with Tween-80 100 % of control

N#CSCC(=O)c1ccccc1
inactive: dose: 3.0 mg/kg/injection, schedule: Q01DX009 (ip), vehicle: Klucel (hydroxypropylcellulose) (HPC) 104 % of control | dose: 6.0 mg/kg/injection, schedule: Q01DX009 (ip), vehicle: Klucel (hydroxypropylcellulose) (HPC) 101 % of control | [7] 105 % of control | dose: 12.0 mg/kg/injection, schedule: Q01DX009 (ip), vehicle: Klucel (hydroxypropylcellulose) (HPC) 107 % of control | dose: 12.0 mg/kg/injection, schedule: Q04DX003 (ip), vehicle: saline 104 % of control | dose: 25.0 mg/kg/injection, schedule: Q01DX001 (ip), vehicle: saline 113 % of control | [8] 106 % of control | [9] 97 % of control | dose: 50.0 mg/kg/injection, schedule: Q04DX003 (ip), vehicle: saline 101 % of control

Cc1cccc(NC(=O)c2ccccc2C(=O)O)c1C
inactive: dose: 100.0 mg/kg/injection, schedule: Q01DX009 (ip), vehicle: Klucel (hydroxypropylcellulose) (HPC) 98 % of control | dose: 100.0 mg/kg/injection, schedule: Q04DX003 (ip), vehicle: Klucel (hydroxypropylcellulose) (HPC) 98 % of control | dose: 200.0 mg/kg/injection, schedule: Q01DX009 (ip), vehicle: Klucel (hydroxypropylcellulose) (HPC) 93 % of control | dose: 200.0 mg/kg/injection, schedule: Q04DX003 (ip), vehicle: Klucel (hydroxypropylcellulose) (HPC) 95 % of control | dose: 400.0 mg/kg/injection, schedule: Q01DX009 (ip), vehicle: Klucel (hydroxypropylcellulose) (HPC) 96 % of control | dose: 400.0 mg/kg/injection, schedule: Q04DX003 (ip), vehicle: Klucel (hydroxypropylcellulose) (HPC) 93 % of control

S=C(SP(SC(=S)N1CCCCC1)SC(=S)N1CCCCC1)N1CCCCC1
inactive: [1] 95 % of control | [2] 89 % of control | [3] 95 % of control

CCCNC1=C(N2CC2)C(=O)C(NCCC)=C(N2CC2)C1=O
inactive: dose: 0.09 mg/kg/injection, schedule: Q04DX003 (ip), vehicle: saline 96 % of control and 109 % of control | dose: 0.18 mg/kg/injection, schedule: Q04DX003 (ip), vehicle: saline 97 % of control and 106 % of control | dose: 0.37 mg/kg/injection, schedule: Q01DX001 (ip), vehicle: saline 108 % of control | dose: 0.37 mg/kg/injection, schedule: Q04DX003 (ip), vehicle: saline 100 % of control and 103 % of control | dose: 0.39 mg/kg/injection, schedule: Q01DX009 (ip), vehicle: saline 95 % of control and 102 % of control | dose: 0.75 mg/kg/injection, schedule: Q01DX001 (ip), vehicle: saline 108 % of control | dose: 0.75 mg/kg/injection, schedule: Q04DX003 (ip), vehicle: saline 105 % of control and 108 % of control | dose: 0.78 mg/kg/injection, schedule: Q01DX009 (ip), vehicle: saline 107 % of control and 118 % of control | dose: 1.5 mg/kg/injection, schedule: Q01DX001 (ip), vehicle: saline 117 % of control | dose: 1.5 mg/kg/injection, schedule: Q04DX003 (ip), vehicle: saline 100 % of control | dose: 1.56 mg/kg/injection, schedule: Q01DX009 (ip), vehicle: saline 107 % of control and 116 % of control | dose: 1.56 mg/kg/injection, schedule: Q04DX003 (ip), vehicle: saline 103 % of control | dose: 3.0 mg/kg/injection, schedule: Q01DX001 (ip), vehicle: saline 118 % of control | dose: 3.0 mg/kg/injection, schedule: Q04DX003 (ip), vehicle: saline 118 % of control and 120 % of control | dose: 3.12 mg/kg/injection, schedule: Q04DX003 (ip), vehicle: saline 93 % of control | dose: 6.0 mg/kg/injection, schedule: Q01DX001 (ip), vehicle: saline 90 % of control | dose: 6.25 mg/kg/injection, schedule: Q04DX003 (ip), vehicle: saline 98 % of control | [7] 110 % of control | dose: 12.5 mg/kg/injection, schedule: Q04DX003 (ip), vehicle: saline 115 % of control | [8] 113 % of control

CN(C)C1C(=O)C(C(N)=O)=C(O)C2(O)C(=O)C3=C(O)c4c(O)cccc4C(C)(O)C3C(O)C12 (stereo not drawn)
inactive: dose: 19.5 mg/kg/injection, schedule: Q01DX Z (ip), vehicle: carboxymethylcellulose (CMC) 94 % of control | dose: 39.0 mg/kg/injection, schedule: Q01DX Z (ip), vehicle: carboxymethylcellulose (CMC) 91 % of control | [9] 93 % of control | dose: 50.0 mg/kg/injection, schedule: Q01DX Z (ip), vehicle: water 117 % of control | dose: 78.0 mg/kg/injection, schedule: Q01DX Z (ip), vehicle: carboxymethylcellulose (CMC) 89 % of control | [4] 90 % of control | dose: 100.0 mg/kg/injection, schedule: Q01DX Z (ip), vehicle: water 119 % of control | dose: 156.0 mg/kg/injection, schedule: Q01DX Z (ip), vehicle: carboxymethylcellulose (CMC) 98 % of control | [5] 95 % of control | [6] 101 % of control

CC1C/C=C2\CSC(NC(=O)/C3=C\N(C/C=C/C=C/C(O)CC(O)CC(=O)N3)C2=O)C(=O)O1 (stereo not drawn)
inactive: dose: 10.6 mg/kg/injection, schedule: Q01DX Z (ip), vehicle: saline 100 % of control | dose: 16.0 mg/kg/injection, schedule: Q01DX Z (ip), vehicle: saline 106 % of control | dose: 24.0 mg/kg/injection, schedule: Q01DX Z (ip), vehicle: saline 106 % of control | dose: 36.0 mg/kg/injection, schedule: Q01DX Z (ip), vehicle: saline 103 % of control | dose: 100.0 mg/kg/injection, schedule: Q01DX001 (ip), vehicle: carboxymethylcellulose (CMC) 110 % of control | dose: 200.0 mg/kg/injection, schedule: Q01DX001 (ip), vehicle: carboxymethylcellulose (CMC) 94 % of control | dose: 400.0 mg/kg/injection, schedule: Q01DX001 (ip), vehicle: carboxymethylcellulose (CMC) 97 % of control

CC1(C)N=C(N)N=C(N)N1c1cccc(OCCOc2ccc(N)cc2)c1
inactive: dose: 10.0 mg/kg/injection, schedule: Q01DX001 (ip), vehicle: saline 94 % of control | dose: 20.0 mg/kg/injection, schedule: Q01DX001 (ip), vehicle: saline 96 % of control | dose: 40.0 mg/kg/injection, schedule: Q01DX001 (ip), vehicle: saline 102 % of control

COc1cc(NC(C)=O)ccn1
inactive: dose: 100.0 mg/kg/injection, schedule: Q04DX003 (ip), vehicle: acetone 89 % of control | dose: 200.0 mg/kg/injection, schedule: Q04DX003 (ip), vehicle: acetone 100 % of control | dose: 400.0 mg/kg/injection, schedule: Q04DX003 (ip), vehicle: acetone 110 % of control
